Laboratory results published in patent publication US9505739B2, “Spiropyrrolidine beta-secretase inhibitors for the treatment of alzheimer's disease” (Merck Sharp & Dohme Corp., priority 2009, dated 2016).

Target: BACE 1 (Homo sapiens (Human), UniProt P56817)
Test: ECL assay: homogeneous end point electrochemiluminescence assay of beta-secretase inhibition with biotinylated BACE substrate
Assay type: biochemical
Conditions: soluble human BACE 1, pH 6.5, rt
Method: Enzyme inhibition is determined as follows.
ECL Assay: A homogeneous end point electrochemiluminescence (ECL) assay is performed using a biotinylated BACE substrate. The Km of the substrate is approximated at 50 μM. A typical reaction contains approximately 0.6 nM enzyme, 0.25 μM of the substrate, and buffer (50 mM Pipes, pH 6.5, 0.1 mg/ml BSA, 0.2% CHAPS, 15 mM EDTA and 1 mM deferoxamine) in a total reaction volume of 100 μl. The reaction proceeds for 1-2 hrs and is then stopped by the addition of 150 μL of a quench cocktail solution (25 μl M Tris-HCl, pH 8.0, 50 μl INC buffer (2% BSA, 0.2% Tween-20 and 0.05% sodium azide diluted in Phosphate buffered saline (PBS) plus 75 μL PBS), containing Streptavidin coated magnetic beads and ruthenylated antibody which specifically recognizes the C-terminal residue of the product. The samples are subjected to M-384 (Igen Inc., Gaithersburg, Md.) analysis. Under these conditions, less than 10% of substrate is processed by BACE 1. The enzyme used in these studies is soluble (transmembrane domain and cytoplasmic extension excluded) human protein produced in a baculovirus expression system. To measure the inhibitory potency for compounds, 10 concentrations of inhibitors are prepared starting from 200 μM with three fold series dilution. Solutions of the inhibitor in DMSO are included in the reaction mixture (final DMSO concentration is 10%). […]

Sequence of BACE 1 (P56817 46-457): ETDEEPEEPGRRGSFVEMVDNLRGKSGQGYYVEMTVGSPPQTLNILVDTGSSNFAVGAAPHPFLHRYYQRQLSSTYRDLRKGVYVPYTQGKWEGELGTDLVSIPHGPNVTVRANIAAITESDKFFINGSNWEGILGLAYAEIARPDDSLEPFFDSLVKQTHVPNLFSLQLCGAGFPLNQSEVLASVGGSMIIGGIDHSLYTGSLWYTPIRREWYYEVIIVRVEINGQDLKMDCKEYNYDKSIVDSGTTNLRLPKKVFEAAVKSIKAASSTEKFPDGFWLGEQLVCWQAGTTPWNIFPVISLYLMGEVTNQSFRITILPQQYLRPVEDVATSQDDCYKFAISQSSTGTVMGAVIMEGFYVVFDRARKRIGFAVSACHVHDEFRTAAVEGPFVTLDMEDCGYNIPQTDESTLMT

For `Cc1cccc(C2CC(c3ccccc3)CCN2C(=O)[C@@H]2CNC[C@]23CCCc2nc(Cl)ccc23)c1` (stereo partly drawn) [Example 100, [(3R,4S)-2′-chloro-7′,8′-dihydro-6′H-spiro [pyrrolidine-3,5′-quinolin]-4-yl][2-(3-methylphenyl)-4-phenylpiperidin-1-yl] methanone], the IC50 was 450 nM.
